Measured values published in ChEMBL document CHEMBL1201862, “PubChem BioAssay data set” (2004).
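48-hour exposure; five concentrations; linearly interpolated endpoints. GI50 is the concentration that inhibits growth by half.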 The source made the active and inactive calls. Cut-off read from the data, not from the text of the source: active = GI50 up to about 1.1 µM and inactive = higher.

What was measured:
Assay in all cases: NCI tumour cell line growth inhibition, 48 h
[1] = test system: HCC 2998
[2] = test system: HCT-116
[3] = test system: SF-295
[4] = test system: SR
[5] = test system: RXF 393
[6] = test system: 786-0
[7] = test system: SN12C
[8] = test system: SK-MEL-28
[9] = test system: NCI-H460
[10] = test system: OVCAR-4
[11] = test system: SK-MEL-5
[12] = test system: HL-60
[13] = test system: OVCAR-5
[14] = test system: HOP-92
[15] = test system: A498
[16] = test system: K562
[17] = test system: MDA-MB-435
[18] = test system: NCI/ADR-RES
[19] = test system: PC-3
[20] = test system: T47D

Compound | GI50 [1] | GI50 [2] | GI50 [3] | GI50 [4] | GI50 [5] | GI50 [6] | GI50 [7] | GI50 [8] | GI50 [9] | GI50 [10] | GI50 [11] | GI50 [12] | GI50 [13] | GI50 [14] | GI50 [15] | GI50 [16] | GI50 [17] | GI50 [18] | GI50 [19] | GI50 [20]
O=C1C=CC2(CCCCCCC2=O)CC1 (stereo not given) | > 100 µM (inactive) | > 100 µM (inactive) | > 100 µM (inactive) | > 100 µM (inactive) | > 100 µM (inactive) | > 100 µM (inactive) | > 100 µM (inactive) | > 100 µM (inactive) | > 100 µM (inactive) | > 100 µM (inactive) | > 100 µM (inactive) | > 100 µM (inactive) | > 100 µM (inactive) | > 100 µM (inactive) | > 100 µM (inactive) | – | – | – | – | –
CCCCCCCCC(=O)NCCCNCCCNC(=O)CCCCCCCC | 2.84 µM (inactive) | 5.04 µM (inactive) | 5.65 µM (inactive) | 2.62 µM (inactive) | 8.89 µM (inactive) | 1.86 µM (inactive) | 6.19 µM (inactive) | 12.3 µM (inactive) | 2.54 µM (inactive) | 14.7 µM (inactive) | 3.82 µM (inactive) | 2.11 µM (inactive) | 15.2 µM (inactive) | 3.85 µM (inactive) | 16.9 µM (inactive) | 2.18 µM (inactive) | – | – | – | –
ClC1=NSSC1(Cl)Cl | > 100 µM (inactive) | 30.6 µM (inactive) | 61.5 µM (inactive) | 21 µM (inactive) | 46.1 µM (inactive) | 23.6 µM (inactive) | 22.1 µM (inactive) | > 10 µM (inactive) | 36.9 µM (inactive) | 44.2 µM (inactive) | 14.1 µM (inactive) | 2.4 µM (inactive) | 29.9 µM (inactive) | > 10 µM (inactive) | > 100 µM (inactive) | 5.9 µM (inactive) | 41.8 µM (inactive) | 34.8 µM (inactive) | 61.7 µM (inactive) | –
Cc1csc(NC23CC4CC(CC(C4)C2)C3)[n+]1C(P(=O)([O-])O)P(=O)(O)O (stereo not given) | > 100 µM (inactive) | > 100 µM (inactive) | > 100 µM (inactive) | > 100 µM (inactive) | > 100 µM (inactive) | > 100 µM (inactive) | – | > 100 µM (inactive) | > 100 µM (inactive) | – | > 100 µM (inactive) | – | > 100 µM (inactive) | > 100 µM (inactive) | > 100 µM (inactive) | > 100 µM (inactive) | > 100 µM (inactive) | > 100 µM (inactive) | > 100 µM (inactive) | –
CCOC(=O)C(CCC(N)=O)(CCC(=O)OC)C(=O)OCC | > 100 µM (inactive) | > 100 µM (inactive) | > 100 µM (inactive) | > 100 µM (inactive) | > 100 µM (inactive) | > 100 µM (inactive) | > 100 µM (inactive) | > 100 µM (inactive) | > 100 µM (inactive) | > 100 µM (inactive) | – | > 100 µM (inactive) | > 100 µM (inactive) | > 100 µM (inactive) | > 100 µM (inactive) | > 100 µM (inactive) | – | – | – | –
COc1ccc(Nc2nc3ccc(C(F)(F)F)cc3nc2-c2ccccc2)cc1OC | 14.6 µM (inactive) | 27.4 µM (inactive) | 17.4 µM (inactive) | 21.4 µM (inactive) | 23 µM (inactive) | 23.3 µM (inactive) | 38 µM (inactive) | > 100 µM (inactive) | 16.4 µM (inactive) | > 100 µM (inactive) | 35.8 µM (inactive) | 36.1 µM (inactive) | 52.7 µM (inactive) | 1.08 µM (active) | 21.3 µM (inactive) | 31.4 µM (inactive) | – | – | – | –
CC(C)c1c(O)c(O)c2c(c1O)C(=O)C(O)=C1C(C)(C)CCC[C@@]12C | 3.37 µM (inactive) | 3.4 µM (inactive) | 2.96 µM (inactive) | 4.05 µM (inactive) | 2.86 µM (inactive) | 3.44 µM (inactive) | 3.23 µM (inactive) | 5.85 µM (inactive) | 3.19 µM (inactive) | 3.26 µM (inactive) | 2.6 µM (inactive) | 2.05 µM (inactive) | 5.18 µM (inactive) | 1.89 µM (inactive) | 3.84 µM (inactive) | 2.77 µM (inactive) | 2.96 µM (inactive) | – | 2.64 µM (inactive) | 3.24 µM (inactive)
OCCN(/N=C\c1ccc2ccccc2c1)C1=NCCN1 | 16.3 µM (inactive) | 26.7 µM (inactive) | 31 µM (inactive) | 25.6 µM (inactive) | 11.4 µM (inactive) | 25.2 µM (inactive) | 25.3 µM (inactive) | 19.3 µM (inactive) | 29.4 µM (inactive) | 30.8 µM (inactive) | 18.3 µM (inactive) | 19 µM (inactive) | 24.2 µM (inactive) | 16 µM (inactive) | – | 14.4 µM (inactive) | 16.9 µM (inactive) | – | 24.9 µM (inactive) | 29.6 µM (inactive)
COC(=O)c1c(C)cccc1/C=C1\Cc2cc(C)cc(C)c2C1=O | 82.2 µM (inactive) | 36.8 µM (inactive) | 21.7 µM (inactive) | > 100 µM (inactive) | 20.7 µM (inactive) | 16.3 µM (inactive) | > 100 µM (inactive) | > 100 µM (inactive) | 98.4 µM (inactive) | 9.75 µM (inactive) | 32.3 µM (inactive) | > 100 µM (inactive) | > 100 µM (inactive) | 17.9 µM (inactive) | 51.2 µM (inactive) | > 100 µM (inactive) | – | – | > 100 µM (inactive) | 31.7 µM (inactive)
Cc1ccc(C)c(NC(=O)CC/C(=N\NC(=O)c2c(O)ccc3ccccc23)C(C)C(=O)c2ccc(O)cc2)c1 (stereo not given) | 44.6 µM (inactive) | 57.4 µM (inactive) | 37.2 µM (inactive) | 27.8 µM (inactive) | 51.9 µM (inactive) | 28.5 µM (inactive) | 38.6 µM (inactive) | 49 µM (inactive) | 21.7 µM (inactive) | 29.9 µM (inactive) | 41.3 µM (inactive) | 5.26 µM (inactive) | 37.5 µM (inactive) | 46.3 µM (inactive) | 60.8 µM (inactive) | 32.8 µM (inactive) | – | – | – | –
CN(C)CCNC(=O)c1cc([N+](=O)[O-])cn1C | > 100 µM (inactive) | > 100 µM (inactive) | > 100 µM (inactive) | > 100 µM (inactive) | > 100 µM (inactive) | > 100 µM (inactive) | > 100 µM (inactive) | > 100 µM (inactive) | > 100 µM (inactive) | > 100 µM (inactive) | > 100 µM (inactive) | > 100 µM (inactive) | > 100 µM (inactive) | – | > 100 µM (inactive) | > 100 µM (inactive) | > 100 µM (inactive) | – | > 100 µM (inactive) | > 100 µM (inactive)
COc1ccc2c(c1)C(=O)N1CCOC1C2C(=O)O (stereo not given) | > 100 µM (inactive) | > 100 µM (inactive) | 4.08 µM (inactive) | > 100 µM (inactive) | – | > 100 µM (inactive) | > 100 µM (inactive) | > 100 µM (inactive) | > 100 µM (inactive) | > 100 µM (inactive) | > 100 µM (inactive) | > 100 µM (inactive) | > 100 µM (inactive) | > 100 µM (inactive) | > 100 µM (inactive) | > 100 µM (inactive) | – | – | – | –
Cc1cc(C2(O)C=C(C(C)(C)C)C(=O)C(C(C)(C)C)=C2)c(C)cc1C1(O)C=C(C(C)(C)C)C(=O)C(C(C)(C)C)=C1 | – | > 100 µM (inactive) | > 100 µM (inactive) | 17.2 µM (inactive) | – | > 100 µM (inactive) | > 100 µM (inactive) | > 100 µM (inactive) | – | > 100 µM (inactive) | > 100 µM (inactive) | > 100 µM (inactive) | > 100 µM (inactive) | – | – | > 100 µM (inactive) | – | > 100 µM (inactive) | > 100 µM (inactive) | > 100 µM (inactive)
CC(=O)O[C@H]1/C(=C/c2ccc(N(C)C)cc2)C[C@H]2[C@@H]3CC=C4C[C@@H](N5CCCC5)CC[C@]4(C)[C@H]3CC[C@]12C | – | > 100 µM (inactive) | > 100 µM (inactive) | 40 µM (inactive) | > 100 µM (inactive) | > 100 µM (inactive) | > 100 µM (inactive) | > 100 µM (inactive) | 61.9 µM (inactive) | – | > 100 µM (inactive) | > 100 µM (inactive) | > 100 µM (inactive) | > 100 µM (inactive) | > 100 µM (inactive) | > 100 µM (inactive) | – | > 100 µM (inactive) | > 100 µM (inactive) | 65.6 µM (inactive)
Clc1cccc(Cl)c1C1SCc2nc3ccccc3n21 (stereo not given) | > 100 µM (inactive) | 9.23 µM (inactive) | > 100 µM (inactive) | 5.38 µM (inactive) | > 100 µM (inactive) | > 100 µM (inactive) | > 100 µM (inactive) | – | 48.6 µM (inactive) | 83.9 µM (inactive) | 9.04 µM (inactive) | 3.97 µM (inactive) | > 100 µM (inactive) | 9.48 µM (inactive) | > 100 µM (inactive) | 10.7 µM (inactive) | – | – | – | –
C[C@H](CCC(=O)O)[C@H]1CC[C@H]2[C@@H]3CC[C@@H]4C[C@H](O)CC[C@]4(C)[C@H]3C[C@H](O)[C@]12C [DEOXYCHOLIC ACID] | 61.2 µM (inactive) | 32.9 µM (inactive) | 17.8 µM (inactive) | – | 52.4 µM (inactive) | 45.8 µM (inactive) | 34 µM (inactive) | 63.1 µM (inactive) | 40.7 µM (inactive) | 49.7 µM (inactive) | 37.8 µM (inactive) | 30.1 µM (inactive) | 44.7 µM (inactive) | – | 41.2 µM (inactive) | 36.6 µM (inactive) | 42.2 µM (inactive) | 44.5 µM (inactive) | 33.6 µM (inactive) | 31.4 µM (inactive)
